row,SMILES,melting point [°C]
1,Cc1cc(CCNc2ncnc3c(F)ccc(F)c23)ccc1Oc1cc(C(F)(F)F)ccn1,108 to 110
2,COCOc1ccc(C(CS(=O)(=O)c2ccc(-c3ccc(C(F)(F)F)cc3)cc2)N(O)C=O)cc1 (centres undefined),137 to 138
3,CO/C=C(/C(=O)OC)c1c(O)c(C)nn1C,173
4,CC#CCC(CC#CC)(C(=O)O)S(=O)(=O)c1ccc(OC)cc1,141 to 143
5,O=C(Nc1ccccc1)Nc1nc2ccc(OC(=O)c3ccccc3)cc2s1,245 to 249
6,COc1ccc(-c2sc3c(c2C)c(=O)c(COC(C)=O)cn3Cc2ccccc2OC)cc1,158 to 159
7,CC(Br)=C(c1ccc(F)cc1)c1ccc(F)cc1,53 to 54
8,O=C1C(c2ccccc2)=C(c2ccccc2)C(=O)N1c1cccc(Cl)c1,144 to 145
9,O=C(CCCCCl)c1cccc2c1OCCO2,32 to 38
10,O=S(=O)(NCCCCl)c1ccc(Nc2ncnc3cc(Cl)ccc23)cc1,168 to 171
11,CC(C)(C)OC(=O)NCC(N)c1c[nH]c2cc(Br)ccc12 (centres undefined),80
12,Nc1ccncc1Oc1ccc2ccccc2c1,117 to 118
13,COc1cc(COC(=O)C2Cc3sccc3C(=O)N2Cc2cc(OC)c(OC)c(OC)c2)cc(OC)c1OC (centres undefined),55
14,Cn1c(C(F)(F)F)cc(=O)n(-c2cc(C=O)c(Cl)cc2Cl)c1=O,117 to 120
15,COc1ccc(-c2nc3c(C(N)=O)cccc3n2C)cc1,289 to 292
16,CSCCC1(C)CCc2c(C)c(O)c(C)c(C)c2O1 (centres undefined),66.5 to 67
17,CNc1ccc(-c2nc(C(=O)Nc3nccs3)c(-c3cccc(OC)c3)[nH]2)cc1,248 to 251
18,CC(=O)OC1CSC(Oc2cc(F)cnc2C#N)C(OC(C)=O)C1OC(C)=O (centres undefined),150
19,COC1(c2cccc(OCc3ccc4ccccc4c3)c2)CCCOCC1 (centres undefined),57 to 58
20,NC(=O)c1c(Cl)c(-c2ccccc2)n2c1CN(C(=O)Cc1cccs1)CC2,225 to 229
21,Cc1cc(COc2ccc(C(=O)NC[C@@H](C(=O)NO)N3CCN(S(=O)(=O)C(C)C)CC3)cc2)c2ccccc2n1,188
22,O=C(O)c1cc(OCc2ccccc2)nc(OCc2ccccc2)c1,145 to 147
23,CNC(=O)N1CC(Oc2ccc(Cl)cc2Cl)C1,140 to 141
24,CCOC(=O)c1cc(C(=O)C(C)(C)Br)c(=O)[nH]c1C(=O)OCC,124 to 126
25,CCCn1cnc2c(=O)[nH]c(N)nc21,> 300

row,SMILES,melting point [°C]
1,CCOC(=O)c1c(-c2ccccc2C)c2cc(Cl)ccc2oc1=O,65 to 66
2,CCCCCCS(=O)(=O)c1c(Br)cc(N)cc1Br,192 to 194
3,O=C(O)CCN1CCN(c2cccc(C(F)(F)F)c2)CC1,228 to 230
4,Nc1ccccc1NCCCN1CCC(n2c(=O)[nH]c3cc(Cl)ccc32)CC1,196
5,CC(C)(C)OC(=O)NCCc1c[nH]c2ccc(CO)cc12,129 to 130
6,CCC(CC)(NC(C)=O)c1ccc(CN2CCN(c3ccccc3)CC2)cc1,139 to 140
7,CC(C)(C)OC(=O)N1CCN(c2ccc(N3CCN(Cc4ccccc4)CC3)cc2)CC1,132 to 133
8,COc1cc(/C=C/C(=O)/C=C/c2cc(OC)c(OCCO)c(OC)c2)cc(OC)c1OCCO,133 to 135
9,Cc1ccc(-c2cc(C(F)(F)F)nn2-c2ccc(C#N)cc2)cc1,125 to 126
10,O=C(O)/C=C/c1ccc(-c2nc3c(=O)n(CCC4CCCCC4)c(=O)n(CCC4CCCCC4)c3[nH]2)cc1,> 250
11,COC(=O)C(CN(c1ccccc1)c1ccccn1)N(C(=O)OC(C)(C)C)C(=O)OC(C)(C)C (centres undefined),103
12,CCOC(=O)c1[nH]c(C(=O)OCC)c(C)c1C,66 to 68
13,CCCCN(CCCC)c1cc(=O)n(-c2ccc(S(=O)(=O)O)cc2)[nH]1,267 to 269
14,CNc1cc(Sc2ccc(O)cc2)c(N)cc1[N+](=O)[O-],206
15,Clc1ccc2c(c1)N(CC#CCN1CCCC1)c1ccccc1S2,48 to 50
16,Nc1nc(N)nc(C=Cc2ccc(C=C3C(=O)NC(=O)NC3=O)cc2)n1,> 350
17,CC(C)(C)C(NC(=O)c1ccc(Cl)cc1)NC(=S)Nc1cccnc1 (centres undefined),164 to 167
18,O=C(O)/C=C(/c1ccccc1)c1ccc2ccccc2c1,170 to 172
19,CCN1c2ncc(COc3ccc(C(=O)OC)cc3)cc2C(=O)N(C)c2ccc(Cl)nc21,196 to 197
20,CC(=O)NC1CN(CCN2CCOCC2)S(=O)(=O)c2sc(S(N)(=O)=O)cc21 (centres undefined),110 to 112
21,COC(=O)CCC(C(=O)c1cccc(I)c1)c1ccccc1C (racemic),106 to 108
22,CCOc1nc(NCc2ccco2)nc(Oc2cccc(C(F)(F)F)c2)n1,97 to 99
23,CC1CC(=O)NN=C1c1ccc(-n2cccc2)nc1 (centres undefined),192 to 193
24,O=C(O)c1ccc(O)c(C(=O)C=Cc2ccc(OCc3ccc4ccccc4n3)cc2)c1,258 to 260
25,O=C(N[C@H]1CC[C@H](CCN2CCC(c3cccc4c3CCO4)CC2)CC1)C1CCC1,197

row,SMILES,melting point [°C]
1,CN1CCN(Cc2cccc(-c3cc4c(Nc5cccc6[nH]ccc56)c(C#N)cnc4s3)c2)CC1,> 245
2,CC(C)(C)OC(=O)NC1(c2ccccc2)CCN(CCC2(c3ccc(F)c(F)c3)CN(C(=O)c3ccccc3)CCO2)CC1 (centres undefined),107
3,COCCn1nc(-c2ccc(C(C)(C)C)cc2)cc1C(=O)NCc1ccc(OC(C)(C)C(=O)O)c(C)c1,112
4,O=C(NC1Cc2cccc(-c3ccc(F)cc3)c2C1)c1ccc(F)cc1 (centres undefined),157
5,CC(=O)Nc1ccc(OCC2CCN(c3ccncc3)CC2)cc1,226 to 228
6,OCC(O)COc1cccc2cccnc12 (centres undefined),193 to 194
7,O=C(Nc1nccs1)c1nc(-c2cccc3ccccc23)[nH]c1-c1ccc([N+](=O)[O-])cc1,237 to 238
8,Cc1cccc(C(=O)N(NC(=O)NS(=O)(=O)c2ccc(Cl)cc2)C(C)(C)C)c1,184 to 188
9,Cc1cccc(C(CNc2ncnc3c2ncn3C2OC(CO)C(O)C2O)c2ccccc2)c1 (centres undefined),92 to 105
10,CCCCCCC(=O)C[C@H](O)C(=O)O,69 to 70
11,CCOC(=O)COc1ccc2c(-c3ccccc3F)noc2c1Br,130 to 131
12,COc1cccc(Cl)c1C1C(=O)NC(C)(C(C)C)C1=O (centres undefined),172 to 174
13,C[C@@H](Cn1ncc2ccc(O)c(Br)c21)NC(=O)OCc1ccccc1,40
14,CC(C)c1ccn2nc(S(=O)(=O)Cl)nc2n1,60 to 62
15,CC(=O)n1cccc(O)c1=O,140 to 141
16,CC(C)(C)c1cc(C(CCc2ccccc2)NCP(=O)(O)O)cc(C(C)(C)C)c1O (centres undefined),162 to 169
17,CCN1C(=O)N(c2cc(Cl)cc(Cl)c2)C(=O)[C@]12CN(S(=O)(=O)c1cccc(C(=O)O)c1)C[C@H]2c1ccc(C#N)cc1 (relative stereo),145
18,C=CS(=O)(=O)N1CCC[C@H]1C(=O)OC(C)(C)C,84 to 87
19,CC1(C)C(C=C(F)C(=O)OCC(F)(F)F)C1C(=O)OC(C#N)c1ccc(F)c(Oc2ccccc2)c1 (centres undefined),85
20,Cc1ccc(Cc2cnc[nH]2)cc1NS(C)(=O)=O,170
21,COC(=O)c1cnc2n1CCc1ccccc1C2=C1CCN(CCc2ccc(OCc3ccc4ccccc4n3)cc2)CC1,179
22,NC1([C@@H]2CCN(c3ccc4c(=O)c(C(=O)O)cn(C5CC5)c4c3OC(F)F)C2)CC1,206 to 208
23,Cc1nc(N)nc(Cl)c1C,212 to 220
24,COc1ccc(Cc2nnsc2-c2cccs2)cc1,72.2 to 73.3
25,CSc1nc(CC2CCN(c3ccc(F)cc3)CC2)nc(C(=O)NCC(=O)O)c1O,228 to 230

row,SMILES,melting point [°C]
1,OC1(c2ccc(-c3ccc(F)cc3)cc2)CN2CCC1CC2 (centres undefined),172 to 173
2,Cc1c(-c2ccccc2)oc2c(S(=O)(=O)N(C)CCO)cccc2c1=O,146 to 147
3,COc1cc2c(c(OC)c1)C1CCCCC1C(=O)C2 (centres undefined),130 to 131
4,COc1ccc(C2=NN(c3csc(C)n3)C(=O)[C@H]3CCCC[C@@H]23)cc1OC (relative stereo),135 to 137
5,Brc1ccc(OCc2ccccn2)cc1/C=C/c1cc(/C=C/c2ccc3cc[nH]c3c2)[nH]n1,100 to 106
6,COc1cc2cnc(O)nc2cc1OC,260 to 263
7,CCCN(CCC)CCCCNC(=O)c1cnc2cc(I)ccc2n1,74 to 76
8,Cc1nccn1C(=O)c1ccccc1,143 to 144
9,C=CCCC(=O)Nc1ccccc1,93 to 94
10,Cc1cc(CSCCC(=C(N)NCCc2cccc(O)c2)[N+](=O)[O-])sc1CN(C)C,114 to 115
11,CCOC(=O)c1cccc2c1N=C(c1ccccc1)CC2=O,218 to 219
12,C#CCNC(=O)N1CC(c2ccc(C(C)(C)C)cc2)C1,141
13,CC(C)c1cccc(C(C)C)c1NC(=O)C1CC(c2ccc(F)cc2)OC1=O (centres undefined),203 to 205
14,CS(=O)c1ccc(-c2nn(Cc3ccccc3)c(=O)cc2-c2ccc(F)cc2)cc1 (centres undefined),198
15,CCOC(=O)C(CC)(CC)CCCS(N)(=O)=O,66 to 67
16,Clc1cc(Cl)c2[nH]c(-c3ccccc3)cc2c1,136 to 138
17,COc1cc(OC)c2c(=O)[nH]c(-c3ccc(OCCNC(C)C)c(-c4ccccc4)n3)nc2c1,179 to 180
18,O=[N+]([O-])c1cc(Cl)c(Cl)cc1NC1CCC(O)C1O (centres undefined),134 to 136
19,CCOC1=CC2=CCc3cc(C#N)ccc3[C@]2(Cc2ccccc2)CC1,164 to 165
20,CCCCCCOC(=O)C(=O)Nc1cc(C#N)cc(NC(=O)C(=O)OCCCCCC)c1Cl,82 to 84
21,CCOCCNc1nc(S)nc(N[C@@H](C)c2ccccc2)n1,53
22,Cn1cccc1C(N)=S,87 to 88
23,CNC1=C(C#N)C(c2ccc(Cl)c([N+](=O)[O-])c2)c2ccc3ccccc3c2O1 (centres undefined),278 to 279
24,CCN(CC)C(=O)[C@H]1C[C@H](C(=O)OC(C)(C)C)N(C(=O)CNC(=O)Nc2cccc(C(=O)O)c2)[C@@H]1c1ccccc1F (racemic),150

# Source: a melting point compilation (Tetko et al.; mined from patent text by program, amines drawn as free bases though some values may be those of a salt)
